Laboratory results: paper PMC12766724, “Synthesis, Anthelmintic Activity, and Mechanism of Action of 5‑Aryl‑1H‑indoles” (Journal of Agricultural and Food Chemistry, 2025)
One block for each compound: values may come before it.

Assays:
C. elegans N2 wild-type = test: Chitinase assay (reproductive capacity); type: in vivo, Caenorhabditis elegans; settings: Caenorhabditis elegans
Protocol: The effect of compounds on C. elegans was evaluated using the Chitinase assay as we described previously.
After exposing L1 larvae to the compounds for 4 days, we observed the populations under a microscope and measured the Chitinase activity. The larvae produce the enzyme while hatching, and its activity is indicative of the reproductive capacity of the worms. Populations that fail to reproduce due to acute or reproductive toxicity or developmental abnormalities are detected.

[1] = system: C. elegans complex II mutant RP2702; test: Scoring of developmental rates, L1 exposed 5 days; type: in vivo, Caenorhabditis elegans; settings: 1 µM (control)
From the text: (§1) Dead or mostly immobile worms, arrested at the L1 stage, received a score of 1. Populations with severely delayed development were scored as 2. More developmentally advanced, but still obviously delayed worms were given the score of 3. Adult worms that produce a noticeably lower number of progeny received a score of 4. Healthy worms that reproduce normally (i.e., hundreds of eggs and larvae are present) were scored as 5 (see Figure C for representative images). In a typical, correctly prepared experiment, vehicle-treated populations should receive a score of 5, while worms treated with ivermectin (positive control) should receive a score of 1. […]

[2] = system: C. elegans complex II mutant RP2700; test: Scoring of developmental rates, L1 exposed 5 days; type: in vivo, Caenorhabditis elegans; settings: 1 µM (control)
From the text: as §1

[3] = system: C. elegans complex II mutant RP2699; test: Scoring of developmental rates, L1 exposed 5 days; type: in vivo, Caenorhabditis elegans; settings: 1 µM (control)
From the text: as §1

C. elegans N2 = test: Scoring of developmental rates, L1 exposed 5 days; type: in vivo, Caenorhabditis elegans; set-up: key: 1 = dead/arrested at L1 … 5 = healthy, normal reproduction; settings: 1 µM (control)
From the text: as §1

[4] = system: human keratinocytes (HaCaT); test: Resazurin assay, 3-day treatment; type: cell-based
Protocol: (§2) Skin fibroblasts (BJ) were obtained from the American Type Culture Collection (ATCC, Manassas, VA), while human keratinocytes (HaCaT) were sourced from the German Cancer Research Center in Heidelberg, Germany. Cells were cultured in a standard DMEM medium from Sigma-Aldrich, supplemented with 10% fetal bovine serum, 2 mM glutamine, 100 U/mL penicillin, and 100 μg/mL streptomycin. Cultures were maintained under standard conditions (37 °C, 5% CO2, humidified atmosphere) and subcultured two to three times per week. We assessed the effect of 3-day compound treatments on cell viability using a resazurin reduction assay measuring mitochondrial activity. Approximately 5,000 cells in 80 μL of culture medium were seeded into the wells of a 96-well plate. Twenty-four hours later, 20 μL of 5-fold concentrated test compound solutions was added and tested across three concentrations prepared through 2-fold serial dilutions. The highest final concentration was 40 μM. After 72 h, we added an 11-fold concentrated resazurin solution to the wells, achieving a final concentration of 0.0125 μM. Fluorescence (ex = 570 nm, em = 610 nm) was measured after 3 h of incubation.
The disubstituted derivatives i-25 and i-27 were the most toxic in the set, causing around a 50% decrease in viability of HaCaT cells at 40 μM.

Skin fibroblasts (BJ) = test: Resazurin assay, 3-day treatment; type: cell-based, human; settings: BJ
Protocol: as §2, with “incubation. […]” for “incubation.”

[5] = system: age unsynchronized Ditylenchus destructor; test: Motility on WMicrotracker ONE; type: in vivo
Protocol: Populations of D. destructor, kindly provided by Central Institute for Supervising and Testing in Agriculture, the Ministry of Agriculture of the Czech Republic, were maintained according to the protocol previously described here.
(§3) The effect of compounds on motility of H. contortus, D. destructor, and H. schachtii was evaluated using the WMicrotracker ONE platform according to previously published protocols. ,
(§4) The instrument evaluates the activity of small animals by counting how many times infrared light microbeams passing through the wells of a microtiter plate are interrupted. In age-unsynchronized populations of D. destructor, we observed reduced motility of worm populations treated with the halogenated derivatives i-19, i-20, and i-21 (Figures A, S2.1A, S2.2A and Table S2.1). […] The decreases in mean activity counts after 72 h of treatment at 100 μM were 85% and 97%, respectively.

[6] = system: Heterodera schachtii second-stage juveniles (J2); test: Motility on WMicrotracker ONE; type: in vivo
Protocol: H. schachtii was maintained on mustard (Sinapsis alba cv. Albatros) roots grown in vitro on modified KNOP medium according to the previously published protocols. ,
as §3, §4

[7] = 10 mM group, initial (prior to the treatment)

Compound: CC[C@H](C)[C@H]1O[C@]2(CC[C@@H]1C)C[C@@H]1C[C@@H](C/C=C(\C)[C@@H](O[C@H]3C[C@H](OC)[C@@H](O[C@H]4C[C@H](OC)[C@@H](O)[C@H](C)O4)[C@H](C)O3)[C@@H](C)/C=C/C=C3\CO[C@@H]4[C@H](O)C(C)=C[C@@H](C(=O)O1)[C@]34O)O2 [ivermectin, reference compound]
mean score (1-5) [1]: 1
mean score (1-5) [2]: 1
mean score (1-5) [3]: 1.333
mean score (1-5) (C. elegans N2): 1

Compound: Oc1cccc(-c2ccc3[nH]ccc3c2)c1 [i-3]
Average viability (signal intensity relative to control) ([4]; 10 µM): 1.02 ± 0.06
Average viability (signal intensity relative to control) ([4]; 20 µM): 1 ± 0.06
Average viability (signal intensity relative to control) ([4]; 40 µM): 0.93 ± 0.06
Average viability (signal intensity relative to control) (Skin fibroblasts (BJ); 10 µM): 1 ± 0.01
Average viability (signal intensity relative to control) (Skin fibroblasts (BJ); 20 µM): 0.97 ± 0
Average viability (signal intensity relative to control) (Skin fibroblasts (BJ); 40 µM): 0.89 ± 0

Compound: [N-]=[N+]=[N-].[Na+] [NaN3, reference compound]
average activity counts [5, 7]: 223
average activity counts ([5]; 10 mM, 48 h): 7
average activity counts ([5]; 10 mM, 72 h): 2
average activity counts [6, 7]: 182
average activity counts ([6]; 10 mM, 48 h): 2
average activity counts ([6]; 10 mM, 72 h): 2

The remaining lines, values ahead:

IC50 (C. elegans N2 wild-type): 25 to 50 µM
Compound: Oc1cc(-c2ccc3[nH]ccc3c2)ccc1Cl [i-24]

IC50 (C. elegans N2 wild-type): 15.8 ± 1.78 µM
Compound: COc1ccc(-c2ccc3[nH]ccc3c2)cc1 [i-7]

IC50 (C. elegans N2 wild-type): 15.2 ± 0.89 µM
Compound: CC(C)Oc1ccc(-c2ccc3[nH]ccc3c2)cc1 [i-16]
